Assays:
FLT3-ITD = FLT3-ITD (Homo sapiens, UniProt P36888); assay: HotSpot radiometric kinase assay (Reaction Biology); assay type: biochemical
Description: Briefly, specific kinase/substrate pairs along with required cofactors were prepared in reaction buffer; 20 mM Hepes pH 7.5, 10 mM MgCl2, 1 mM EGTA, 0.02% Brij35, 0.02 mg/ml BSA, 0.1 mM Na3VO4, 2 mM DTT, 1% DMSO. Compounds were delivered into the reaction, followed ˜20 minutes later by addition of a mixture of ATP (Sigma, St. Louis MO) and ^33P ATP (Perkin Elmer, Waltham MA) to a final concentration of 10 M. Reactions were carried out at room temperature for 120 min, followed by spotting of the reactions onto P81 ion exchange filter paper (Whatman Inc., Piscataway, NJ). Unbound phosphate was removed by extensive washing of filters in 0.75% phosphoric acid. […] IC50 values and curve fits were obtained using Prism (GraphPad Software).

BaF3 FLT3-ITD/D835V = assay: Cell proliferation panel (CellTiter-Glo 2.0, 5 days); assay type: cell-based; settings: murine pro-B cell line expressing FLT3-ITD/D835V
From the text: (§1) Ba/F3 cells were purchased from DSMZ. The FLT3-ITD gene was synthesized at GenScript and cloned into pCDH-CMV-MCS-EF1-Puro plasmid (System Biosciences, Inc). FLT3-ITD/D835V and FLT3-ITD/F691L cDNA clones were made at GenScript by PCR and confirmed by sequence. Ba/F3 FLT3-ITD, FLT3-ITD/D835V and FLT3-ITD/F691L cell lines were generated by infecting Ba/F3 cells with lentivirus containing FLT3-ITD, FLT3-ITD/D835V or FLT3-ITD/F691L genes. Stable cell lines were selected by puromycin treatment, followed by IL-3 withdrawal.
(§2) Cell proliferation assay was carried out in a panel of 108 cell lines. 1000 (attached cells) or 3000 (suspension cells) cells/100 μl per well were seeded in 96 well black plate with a clear bottom (Corning #3904). Compounds were added using Tecan D300e Digital Dispenser in 1:3 titration for 9 doses. Plates were incubated for 5 days at 37° C. and 5% CO2. Cell proliferation was measured using CellTiter-Glo 2.0 luciferase-based ATP detection assay (Promega, Madison, WI) at 50 μl per well following the manufacturer's protocol. Plates were then read on a TECAN Sparks multimode microplate reader. Data was analyzed using GraphPad Prism 9 (GraphPad Software, San Diego, CA) to obtain IC50 values. IC50 values were determined using Prism software (GraphPad Software, San Diego, CA).

BaF3 FLT3-ITD/F691L = assay: as above; assay type: cell-based; settings: murine pro-B cell line expressing FLT3-ITD/F691L
From the text: as §1, §2

BaF3 FLT3-ITD = assay: as above; assay type: cell-based; settings: murine pro-B cell line expressing FLT3-ITD
From the text: as §1, §2

BaF3 = assay: as above; assay type: cell-based; settings: murine IL-3 dependent pro-B cell line, with 1 ng/mL mouse IL-3
From the text: as §1, §2

ASPC1 = assay: as above; assay type: cell-based; settings: Pancreatic adenocarcinoma
Description: as §2

BT-474 = assay: as above; assay type: cell-based; settings: Mammary gland ductal carcinoma
Description: as §2

COLO320 = assay: as above; assay type: cell-based; settings: Colorectal adenocarcinoma
Description: as §2

CT26 = assay: as above; assay type: cell-based; settings: Murine colon carcinoma fibroblasts
Description: as §2

EOL-1 = assay: as above; assay type: cell-based; settings: Chronic eosinophilic leukemia
Description: as §2

H1688 = assay: as above; assay type: cell-based; settings: Small cell lung carcinoma
Description: as §2

H211 = assay: as above; assay type: cell-based; settings: Small cell lung carcinoma
Description: as §2

H69 = assay: as above; assay type: cell-based; settings: Lung small cell carcinoma
Description: as §2

HCC1806 = assay: as above; assay type: cell-based; settings: Breast carcinoma, TNBC
Description: as §2

HCC38 = assay: as above; assay type: cell-based; settings: Mammary gland ductal carcinoma
Description: as §2

HGC-27 = assay: as above; assay type: cell-based; settings: Gastric carcinoma
Description: as §2

JPC3 = assay: as above; assay type: cell-based; settings: Lung carcinoma
Description: as §2

KASUMI-1 = assay: as above; assay type: cell-based; settings: Acute myeloblastic leukemia
Description: as §2

KG-1 = assay: as above; assay type: cell-based; settings: Acute myelogenous leukemia
Description: as §2

PANC0203 = assay: as above; assay type: cell-based; settings: Pancreatic adenocarcinoma
Description: as §2

SKOV3 = assay: as above; assay type: cell-based; settings: Ovarian adenocarcinoma
Description: as §2

SUIT-2 = assay: as above; assay type: cell-based; settings: Pancreatic tubular adenocarcinoma
Description: as §2

T47D = assay: as above; assay type: cell-based; settings: Mammary gland ductal carcinoma
Description: as §2

TOV-112D = assay: as above; assay type: cell-based; settings: Endometrioid ovarian cancer
Description: as §2

U138-MG = assay: as above; assay type: cell-based; settings: Brain glioblastaoma
Description: as §2

[1] = tested on: BCLAF1 exon10-12/exon 10-11; assay: Alternative splicing ratio by qPCR in MOLM-13; assay type: cell-based; settings: DMSO = 1.00
Description: Alternative splicing ratio of RNA transcripts was measured by qPCR in MV-4-11 and MOLM-13 cell lines. Cells were plated in 24 well plates at 1 million cells per well and then treated with compounds at different concentrations, with DMSO only as control. After 8-hour-incubation, cells were harvested and washed once with ice-cold PBS, and lysed in RNA lysis buffer (Invitrogen). Total RNA was extracted using the RNA Purification Kit (Invitrogen). 2 μg of RNA was used for cDNA synthesis using cDNA synthesis kit (ThermoFisher) and 20 ng of cDNA was used for qPCR using PROFLEX 96-Well PCR System (ThermoFisher).
Primers with the following sequences were used for the measurement: • BCLAF1 exon10-12/exon 10-11 (TaqMan, IDT)

FLT3-ITD, sequence (P36888 whole entry, looked up, stated change not applied): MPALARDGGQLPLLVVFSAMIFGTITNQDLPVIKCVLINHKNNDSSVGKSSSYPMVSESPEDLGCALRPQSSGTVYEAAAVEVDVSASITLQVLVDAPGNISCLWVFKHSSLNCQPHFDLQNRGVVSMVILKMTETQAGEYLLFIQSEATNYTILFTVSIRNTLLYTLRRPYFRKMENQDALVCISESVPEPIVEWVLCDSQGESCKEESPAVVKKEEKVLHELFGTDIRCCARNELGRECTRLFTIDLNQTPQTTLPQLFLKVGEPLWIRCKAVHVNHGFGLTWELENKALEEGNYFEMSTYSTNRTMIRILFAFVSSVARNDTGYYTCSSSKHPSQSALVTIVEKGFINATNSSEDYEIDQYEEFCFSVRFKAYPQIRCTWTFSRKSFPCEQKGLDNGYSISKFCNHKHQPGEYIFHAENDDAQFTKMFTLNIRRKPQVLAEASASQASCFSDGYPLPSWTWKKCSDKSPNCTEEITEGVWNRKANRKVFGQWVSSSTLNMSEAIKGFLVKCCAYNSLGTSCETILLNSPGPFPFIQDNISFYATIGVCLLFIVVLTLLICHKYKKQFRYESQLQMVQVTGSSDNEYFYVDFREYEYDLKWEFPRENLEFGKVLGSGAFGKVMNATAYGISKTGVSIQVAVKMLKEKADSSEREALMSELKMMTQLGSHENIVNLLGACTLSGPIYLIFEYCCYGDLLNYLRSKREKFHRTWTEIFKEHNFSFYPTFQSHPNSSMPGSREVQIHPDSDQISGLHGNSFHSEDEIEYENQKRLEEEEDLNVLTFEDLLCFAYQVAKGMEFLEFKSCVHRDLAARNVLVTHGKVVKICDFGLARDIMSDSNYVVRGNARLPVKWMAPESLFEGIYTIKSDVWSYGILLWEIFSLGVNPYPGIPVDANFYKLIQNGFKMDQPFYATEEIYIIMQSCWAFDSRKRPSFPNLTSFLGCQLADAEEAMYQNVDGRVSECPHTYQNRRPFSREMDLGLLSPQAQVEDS

Question: What does the source list for `CCc1nn(C)c2c1/C=C/c1n[nH]c3ccc(cc13)-c1cnn(C)c1OCCN(C)C2=O` [Ex. 6, (17E)-16-ethyl-8,12,14-trimethyl-2,11,12,14-tetrahydro-8H-3,5-ethenotripyrazolo[3,4-f:3′,4′-j:4″,3″-n][1,4]oxazacyclopentadecin-13(10H)-one]?
Answer: IC50 (FLT3-ITD): 0.348 nM; IC50 (BaF3 FLT3-ITD/D835V): 1.3 nM; IC50 (BaF3 FLT3-ITD/F691L): 22.9 nM; IC50 (BaF3 FLT3-ITD): 0.55 nM; IC50 (BaF3): 513 nM; IC50 (ASPC1): 241 nM; IC50 (BT-474): 278 nM; IC50 (COLO320): 85.2 nM; IC50 (CT26): 215 nM; IC50 (EOL-1): 18.9 nM; IC50 (H1688): 116 nM; IC50 (H211): 105 nM; IC50 (H69): 100 nM; IC50 (HCC1806): 85.9 nM; IC50 (HCC38): 161 nM; IC50 (HGC-27): 100 nM; IC50 (JPC3): 171 nM; IC50 (KASUMI-1): 14 nM; IC50 (KG-1): 153 nM; IC50 (PANC0203): 126 nM; IC50 (SKOV3): 117 nM; IC50 (SUIT-2): 393 nM; IC50 (T47D): 114 nM; IC50 (TOV-112D): 62.5 nM; IC50 (U138-MG): 170 nM; Alternative Splicing Ratio BCLAF1 Ex. 10-12/Ex. 10-11 ([1]; MOLM-13, 30 nM): 1.80; Alternative Splicing Ratio BCLAF1 Ex. 10-12/Ex. 10-11 ([1]; MOLM-13, 100 nM): 5.76; Alternative Splicing Ratio BCLAF1 Ex. 10-12/Ex. 10-11 ([1]; MOLM-13, 300 nM): 6.89
